Source: US20100087424A1, “TRICYCLIC NITROGEN CONTAINING HETEROCYCLES AS ANTIBACTERIAL AGENTS” (Glaxo Group Limited, priority 2007, published 2010)
Structures can show the parent of a compound that is named as a salt.

Test system: Mycobacterium tuberculosis H37Rv
Assay: Mycobacterium tuberculosis H37Rv Inhibition Assay (resazurin fluorescence)
Assay type: cell-based
Settings: ATCC 25618 / H37Rv, read-out: MIC value, H37Rv strain (ATCC25618), Middlebrook 7H9+ADC, six days at 37° C., resazurin read after 48 hours

Row | Compound | MIC
1 | O=c1ccc2ccc(F)c3c2n1[C@H](CN1CC[C@H](NCc2cc4c(cn2)OCCO4)[C@H](O)C1)CO3 [Example 20, (3R)-3-({(3R,4S)-4-[(2,3-Dihydro[1,4]dioxino[2,3-c]pyridin-7-ylmethyl)amino]-3-hydroxy-1-piperidinyl}methyl)-10-fluoro-2,3-dihydro-5H-[1,4]oxazino[2,3,4-ij]quinolin-5-one dihydrochloride] | ≤ 2.8 µg/mL
2 | O=c1ccc2ncc(F)c3c2n1[C@H](CN1CC[C@H](NCc2cc4c(cn2)OCCO4)[C@H](O)C1)CC3 [Example 30, 6-({(3R,4S)-4-[(2,3-dihydro[1,4]dioxino[2,3-c]pyridin-7-ylmethyl)amino]-3-hydroxy-1-piperidinyl}methyl)-3-fluoro-5,6-dihydro-4H,8H-pyrido[3,2,1-de]-1,5-naphthyridin-8-one dihydrochloride] | ≤ 2.8 µg/mL
3 | O=C(O)c1ccccc1.O=c1ccc2ncc(F)c3c2n1[C@H](CN1CCC(NCc2cc4c(nn2)OCCS4)CC1)CO3 [Example 48, (6R)-6-({4-[(6,7-dihydro[1,4]oxathiino[2,3-c]pyridazin-3-ylmethyl)amino]-1-piperidinyl}methyl)-3-fluoro-5,6-dihydro-8H-[1,4]oxazino[2,3,4-de]-1,5-naphthyridin-8-one benzoate] | ≤ 2.8 µg/mL
